Where two headings read alike, the source gives them in different places. Marks after values point to notes of the source that are not given here.
Assays:
HCT116 cells = assay: Tumor cell proliferation in vitro; type: cell-based
[1] = test system: arterial ring angiogenesis; assay: Rat arterial ring angiogenesis
[2] = 28-day repeated dose toxicity; type: in vivo, SD rats
EGFR and ERK activation = assay: EGF-stimulated activation of EGFR and ERK in A431 cells; type: cell-based, human; settings: 10 ng/mL EGF, concentration-dependent
BEL-7402 cells = assay: Tumor cell proliferation in vitro; type: cell-based; settings: BEL-7402
CFPAC-1 cells = assay: Tumor cell proliferation in vitro; type: cell-based
BLK = BLK (Homo sapiens, UniProt P51451); assay: Tyrosine kinase inhibition; type: biochemical
HER-2 = HER-2 (Homo sapiens, UniProt P04626); assay: Tyrosine kinase inhibition; type: biochemical; settings: read-out: IC50, HER2
C-KIT = C-KIT (Homo sapiens, UniProt P10721); assay: Tyrosine kinase inhibition; type: biochemical
RET = RET (Homo sapiens, UniProt P07949); assay: Tyrosine kinase inhibition; type: biochemical
[3] = test system: human gastric cancer SGC-7901 tumors; assay: SGC-7901 tumors in nude mice; type: in vivo
From the text: (§1) was higher than that of vandetanib .
as §1
Table S16. Efficacy of HA121-28 on human gastric cancer SGC-7901 tumors

Plasma protein binding = type: in vitro ADME; settings: humans
EGFR = EGFR (Homo sapiens, UniProt P00533); assay: Tyrosine kinase inhibition; type: biochemical
[4] = test system: RET fusion-positive NSCLC; assay: Tumor response by RECIST 1.1 (ORR, DCR, DOR, PFS), phase 1/2; type: in vivo, human; settings: for Best response: Complete response / Best response: Not evaluable / Best response: Partial response / Best response: Progressive disease / Best response: Stable disease: ERS, investigator-assessed RECIST 1.1; for PFS: patient with previous RET-TKI treatment
Experimental: Treatment-emergent adverse events (TEAEs) were documented during the entire study period. The predefined adverse event of special interest (AESI) was ≥ grade 3 prolonged QT interval. Tumor imaging was performed using contrast-enhanced computed tomography or magnetic resonance imaging at screening, Day 28 of the first cycle, then approximately every eight weeks till the end of the study for phase 1; in phase 2, imaging was scheduled at screening, and every eight weeks during the first 40 weeks, followed by every 12 weeks for the rest of the study period. RECIST 1.1 was used by the independent review committee or investigators for assessment of tumor response. After the original assessment, a repeated assessment was required around four weeks later to confirm a complete or partial response.
The primary endpoints of phase 1 were to investigate the MTD, dose-limiting toxicities, and the incidence and severity of TEAEs. Each TEAE was graded according to the Common Terminology Criteria for Adverse Events (CTCAE, version 5.0) and coded by Medical Dictionary for Regulatory Activities (MedDRA, version 21.0). The secondary endpoints included calculating PK parameters, assessing the ORR and DCR at the recommended dose by investigators as per RECIST 1.1. The exploratory endpoint was PFS.
The primary endpoint of phase 2 was the independent review committee evaluated ORR using RECIST 1.1. The secondary endpoints included investigators assessed ORR; DCR, PFS, and DOR by the independent review committee and investigators; overall survival and TEAEs. Each TEAE was graded according to CTCAE version 5.0 and coded by MedDRA (version 24.0). The phase 2 trial is ongoing; not all endpoints are reported in this paper.
The full analysis set consisted of all patients who had administered at least one dose of HA121-28 and was used to calculate the baseline characteristics, OS, and PFS results. The safety set included all patients who had administered at least one dose of the HA121-28 and had at least one safety-related observation. This population was used for analysis of TEAEs. The efficacy evaluable set consisted of patients who had administered at least one dose of HA121-28 and completed at least one efficacy assessment following study treatment. This population was used to calculate the ORR, DOR, and DCR. In addition, the ORRs for subgroup analyses, including age ( < 60, ≥60), ECOG PS (0 or 1), gender (male or female), prior treatment with TKIs (yes or no), brain or liver metastasis (yes or no), were also calculated. The plasma drug concentration-time profile was characterized using PK concentration set that included patients who had administered at least one dose of HA121-28 and had at least one measurable plasma concentration of HA121-28. The PK parameter set was used to calculate PK parameters, which consisted of patients who had administered at least one dose of HA121-28 with at least one valid PK parameter. ORR and DCR were described using the Clopper-Pearson method with two-sided 95% confidence intervals (CIs). PFS and DOR were assessed using the Kaplan-Meier method, including an estimate of the median, along with corresponding 95% CIs. Statistical analyses of clinical outcomes were conducted by SAS (version 9.4 or later) and R software 4.1.0 for genomic DNA from pre-treatment tumor tissue (http://cran.r-project.org).

[5] = RET fusion-positive NSCLC, ≥450 mg q.d.

Sequence of EGFR (P00533 25-1210): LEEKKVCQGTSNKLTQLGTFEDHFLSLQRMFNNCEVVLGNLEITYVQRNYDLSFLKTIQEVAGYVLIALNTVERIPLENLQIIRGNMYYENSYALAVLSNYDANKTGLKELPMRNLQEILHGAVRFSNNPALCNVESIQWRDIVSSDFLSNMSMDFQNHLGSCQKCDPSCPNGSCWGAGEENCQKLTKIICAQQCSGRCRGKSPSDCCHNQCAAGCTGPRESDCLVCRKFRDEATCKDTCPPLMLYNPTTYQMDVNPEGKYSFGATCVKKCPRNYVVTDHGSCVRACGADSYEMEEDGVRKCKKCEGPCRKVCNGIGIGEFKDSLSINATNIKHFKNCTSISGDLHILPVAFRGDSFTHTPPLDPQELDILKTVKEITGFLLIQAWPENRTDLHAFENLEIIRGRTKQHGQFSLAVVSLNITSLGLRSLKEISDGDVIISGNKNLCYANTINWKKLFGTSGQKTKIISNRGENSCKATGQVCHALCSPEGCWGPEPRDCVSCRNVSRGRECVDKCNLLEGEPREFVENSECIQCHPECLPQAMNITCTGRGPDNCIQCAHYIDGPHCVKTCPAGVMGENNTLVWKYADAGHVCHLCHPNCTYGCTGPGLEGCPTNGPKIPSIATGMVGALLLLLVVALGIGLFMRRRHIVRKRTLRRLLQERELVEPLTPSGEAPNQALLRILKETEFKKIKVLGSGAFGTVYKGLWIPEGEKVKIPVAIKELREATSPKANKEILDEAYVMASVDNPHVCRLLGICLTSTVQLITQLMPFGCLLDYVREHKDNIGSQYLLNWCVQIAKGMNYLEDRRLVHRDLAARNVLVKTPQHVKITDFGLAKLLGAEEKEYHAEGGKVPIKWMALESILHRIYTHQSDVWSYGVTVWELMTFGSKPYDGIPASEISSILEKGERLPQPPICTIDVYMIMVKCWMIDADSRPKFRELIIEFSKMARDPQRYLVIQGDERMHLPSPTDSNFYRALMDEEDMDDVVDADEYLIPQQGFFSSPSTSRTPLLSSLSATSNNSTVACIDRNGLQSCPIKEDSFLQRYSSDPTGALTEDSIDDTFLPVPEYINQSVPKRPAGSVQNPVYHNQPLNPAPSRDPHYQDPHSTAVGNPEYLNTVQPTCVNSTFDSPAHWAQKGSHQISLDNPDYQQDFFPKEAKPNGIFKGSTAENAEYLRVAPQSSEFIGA
Sequence of BLK (P51451 whole entry): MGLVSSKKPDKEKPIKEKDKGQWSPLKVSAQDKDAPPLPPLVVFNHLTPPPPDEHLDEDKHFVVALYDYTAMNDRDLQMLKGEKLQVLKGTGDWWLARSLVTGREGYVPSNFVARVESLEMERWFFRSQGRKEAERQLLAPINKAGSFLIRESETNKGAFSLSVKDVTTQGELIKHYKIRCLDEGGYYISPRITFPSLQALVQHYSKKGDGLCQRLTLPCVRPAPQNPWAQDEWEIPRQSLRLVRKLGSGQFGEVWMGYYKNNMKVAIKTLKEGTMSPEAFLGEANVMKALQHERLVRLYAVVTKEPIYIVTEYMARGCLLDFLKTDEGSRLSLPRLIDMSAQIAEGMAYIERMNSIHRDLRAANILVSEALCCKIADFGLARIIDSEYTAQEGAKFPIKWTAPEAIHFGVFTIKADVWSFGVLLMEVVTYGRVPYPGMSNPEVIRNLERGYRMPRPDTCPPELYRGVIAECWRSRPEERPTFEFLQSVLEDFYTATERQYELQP
Sequence of RET (P07949 29-1114): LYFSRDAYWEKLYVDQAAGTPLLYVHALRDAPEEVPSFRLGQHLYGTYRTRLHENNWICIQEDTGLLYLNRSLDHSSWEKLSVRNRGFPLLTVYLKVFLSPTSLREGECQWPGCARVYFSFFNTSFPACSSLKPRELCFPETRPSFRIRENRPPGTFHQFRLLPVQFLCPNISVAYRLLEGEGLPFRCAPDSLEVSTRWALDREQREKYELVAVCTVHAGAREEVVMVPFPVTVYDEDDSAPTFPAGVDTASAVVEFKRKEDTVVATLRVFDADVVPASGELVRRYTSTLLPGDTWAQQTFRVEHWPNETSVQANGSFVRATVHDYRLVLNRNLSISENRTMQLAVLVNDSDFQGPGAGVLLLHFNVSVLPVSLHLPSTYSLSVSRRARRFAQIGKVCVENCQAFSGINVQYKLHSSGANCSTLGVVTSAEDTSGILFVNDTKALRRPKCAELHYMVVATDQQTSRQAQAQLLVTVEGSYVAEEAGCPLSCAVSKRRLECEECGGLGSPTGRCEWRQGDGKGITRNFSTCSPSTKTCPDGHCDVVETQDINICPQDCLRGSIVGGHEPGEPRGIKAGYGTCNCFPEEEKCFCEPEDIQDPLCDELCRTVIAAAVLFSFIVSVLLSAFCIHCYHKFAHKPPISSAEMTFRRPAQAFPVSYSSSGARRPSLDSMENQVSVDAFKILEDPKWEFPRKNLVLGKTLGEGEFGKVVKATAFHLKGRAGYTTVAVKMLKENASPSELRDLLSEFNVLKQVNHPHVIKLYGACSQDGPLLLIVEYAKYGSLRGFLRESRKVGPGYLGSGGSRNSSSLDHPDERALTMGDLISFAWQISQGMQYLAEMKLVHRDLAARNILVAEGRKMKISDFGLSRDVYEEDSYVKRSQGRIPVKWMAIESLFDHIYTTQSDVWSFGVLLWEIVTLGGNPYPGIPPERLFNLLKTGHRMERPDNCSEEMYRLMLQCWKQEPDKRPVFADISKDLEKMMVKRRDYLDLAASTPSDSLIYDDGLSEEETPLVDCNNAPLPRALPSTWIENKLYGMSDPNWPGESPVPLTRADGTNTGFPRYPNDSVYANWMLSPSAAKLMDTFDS
Sequence of HER-2 (P04626 23-1255): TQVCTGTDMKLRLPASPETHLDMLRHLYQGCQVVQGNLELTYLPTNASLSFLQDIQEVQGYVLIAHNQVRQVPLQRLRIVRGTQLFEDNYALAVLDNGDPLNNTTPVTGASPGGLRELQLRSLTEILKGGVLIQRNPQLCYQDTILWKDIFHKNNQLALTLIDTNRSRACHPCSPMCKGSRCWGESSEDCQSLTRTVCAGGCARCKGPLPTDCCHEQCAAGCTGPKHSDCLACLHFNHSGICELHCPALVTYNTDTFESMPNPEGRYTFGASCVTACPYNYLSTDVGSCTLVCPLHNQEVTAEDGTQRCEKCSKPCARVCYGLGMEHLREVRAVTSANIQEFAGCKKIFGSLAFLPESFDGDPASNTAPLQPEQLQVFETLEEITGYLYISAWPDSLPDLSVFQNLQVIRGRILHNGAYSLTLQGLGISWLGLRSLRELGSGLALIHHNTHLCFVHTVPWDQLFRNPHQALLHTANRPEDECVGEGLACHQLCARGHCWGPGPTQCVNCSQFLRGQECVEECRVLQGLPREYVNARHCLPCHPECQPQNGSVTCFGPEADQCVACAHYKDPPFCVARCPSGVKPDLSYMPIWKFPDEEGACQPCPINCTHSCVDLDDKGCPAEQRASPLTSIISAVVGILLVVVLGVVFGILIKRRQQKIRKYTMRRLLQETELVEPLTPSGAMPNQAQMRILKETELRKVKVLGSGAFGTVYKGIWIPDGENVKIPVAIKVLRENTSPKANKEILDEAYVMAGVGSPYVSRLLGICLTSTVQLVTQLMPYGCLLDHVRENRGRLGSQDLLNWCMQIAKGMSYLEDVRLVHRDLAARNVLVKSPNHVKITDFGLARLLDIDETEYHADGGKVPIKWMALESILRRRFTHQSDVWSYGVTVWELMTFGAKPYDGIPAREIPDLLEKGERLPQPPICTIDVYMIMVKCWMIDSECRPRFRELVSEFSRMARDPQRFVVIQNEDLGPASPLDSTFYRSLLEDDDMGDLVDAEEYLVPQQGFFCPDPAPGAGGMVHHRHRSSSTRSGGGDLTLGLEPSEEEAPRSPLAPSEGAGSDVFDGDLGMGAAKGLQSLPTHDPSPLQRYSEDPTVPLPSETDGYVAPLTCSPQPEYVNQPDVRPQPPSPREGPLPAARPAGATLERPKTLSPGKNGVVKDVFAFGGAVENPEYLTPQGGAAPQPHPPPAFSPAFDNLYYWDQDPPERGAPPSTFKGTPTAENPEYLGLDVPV
Sequence of C-KIT (P10721 26-976): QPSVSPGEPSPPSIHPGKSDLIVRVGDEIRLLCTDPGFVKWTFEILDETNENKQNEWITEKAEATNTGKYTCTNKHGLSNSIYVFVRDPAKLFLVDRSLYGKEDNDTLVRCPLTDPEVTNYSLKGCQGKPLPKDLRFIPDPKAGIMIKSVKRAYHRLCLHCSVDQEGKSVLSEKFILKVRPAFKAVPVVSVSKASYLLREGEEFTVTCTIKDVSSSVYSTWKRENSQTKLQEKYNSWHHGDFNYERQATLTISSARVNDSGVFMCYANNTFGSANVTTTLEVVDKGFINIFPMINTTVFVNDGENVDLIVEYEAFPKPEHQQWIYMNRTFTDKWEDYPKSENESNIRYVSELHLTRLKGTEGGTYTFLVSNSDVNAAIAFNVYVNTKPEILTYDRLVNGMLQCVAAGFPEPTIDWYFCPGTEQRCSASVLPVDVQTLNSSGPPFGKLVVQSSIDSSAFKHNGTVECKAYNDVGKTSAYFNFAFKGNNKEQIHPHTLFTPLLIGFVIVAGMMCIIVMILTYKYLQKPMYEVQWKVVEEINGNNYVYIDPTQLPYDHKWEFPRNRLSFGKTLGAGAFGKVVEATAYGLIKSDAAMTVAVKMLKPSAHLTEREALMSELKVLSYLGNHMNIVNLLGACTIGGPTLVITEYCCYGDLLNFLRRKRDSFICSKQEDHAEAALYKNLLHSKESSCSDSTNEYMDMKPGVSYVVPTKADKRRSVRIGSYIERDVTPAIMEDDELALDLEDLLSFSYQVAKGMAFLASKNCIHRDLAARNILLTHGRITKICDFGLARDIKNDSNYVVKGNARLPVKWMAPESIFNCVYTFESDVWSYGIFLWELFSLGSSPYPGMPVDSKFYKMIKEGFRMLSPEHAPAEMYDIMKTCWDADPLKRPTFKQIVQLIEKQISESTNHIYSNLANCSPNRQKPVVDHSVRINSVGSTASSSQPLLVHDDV

## COc1cc2c(Nc3ccc(Br)cc3F)ncnc2cc1OCCCCN(C)C.Cl.Cl [HA121-28, N-(4-bromo-2-fluorophenyl)-7-(4-(dimethylamino)butoxy)-6-methoxy quinazolin-4-amine dihydrochloride]
HCT116 cells
  IC50: 1420 ± 236 nM
[1]
  rat arterial ring angiogenesis: able to inhibit
[2]; 28-day, SD rats
  no observed adverse effect level (NOAEL): 15 mg/kg
[2]; oral gavage, four consecutive weeks
  highest non-severely toxic dose (HNSTD): 15 mg/kg
EGFR and ERK activation
  activation of EGFR and downstream ERK: significantly inhibited
BEL-7402 cells; read-out: IC50
  IC50: 10000 to 100000 nM
BEL-7402 cells; read-out: IC50, proliferation
  IC50: 9910 ± 202 nM
CFPAC-1 cells
  IC50: 207 ± 38.3 nM
BLK
  IC50: 201 nM
HER-2
  IC50: 42 nM
C-KIT
  IC50: > 10000 nM
RET
  IC50: 8.72 nM
[3]; 25 mg/kg
  RTV ±SD: 7.2±1.0
  T/C: 45.3%
  Terminal Tumor Volume: 1424.3±410.0** mm^3
[3]; 50 mg/kg
  RTV ±SD: 2.0±1.1
  T/C: 12.8%
  Terminal Tumor Volume: 478.5±307.8** mm^3
[3]; 75 mg/kg
  RTV ±SD: 1.2±0.3
  T/C: 7.6%
  Terminal Tumor Volume: 288.9±162.6** mm^3
Plasma protein binding
  plasma protein binding rate: 90.1±1.05%
EGFR
  IC50: 46.6 nM
[4]; 73 patients with non-RET fusion tumors, phase 1 dose expansion
  tumor response: no response
[4]; 97 RET fusion-positive NSCLC patients, ≥450 mg q.d.
  confirmed ORR (investigator-assessed): 26.8%
[4]; All (N=97)
  Best response: Complete response: 0 No. (%)
  Best response: Not evaluable: 4 (4.1) No. (%)
  Best response: Partial response: 26 (26.8) No. (%)
  Best response: Progressive disease: 23 (23.7) No. (%)
  Best response: Stable disease: 44 (45.4) No. (%)
[4]; CCDC6 (N=15)
  Best response: Complete response: 0 No. (%)
  Best response: Not evaluable: 1 (6.7) No. (%)
  Best response: Partial response: 7 (46.7) No. (%)
  Best response: Progressive disease: 1 (6.7) No. (%)
  Best response: Stable disease: 6 (40.0) No. (%)
[4]; CCDC6-RET fusion patients
  confirmed ORR: 46.7%
  median DOR: 14.0 months
  median PFS: 14.9 months
[4]; KIF5B (N=71)
  Best response: Complete response: 0 No. (%)
  Best response: Not evaluable: 2 (2.8) No. (%)
  Best response: Partial response: 18 (25.4) No. (%)
  Best response: Progressive disease: 21 (29.6) No. (%)
  Best response: Stable disease: 30 (42.3) No. (%)
[4]; KIF5B-RET fusion patients
  confirmed ORR: 25.4%
  median DOR: 7.7 months
  median PFS: 5.5 months
[4]; Other (N=11)
  Best response: Complete response: 0 No. (%)
  Best response: Not evaluable: 1 (9.1) No. (%)
  Best response: Partial response: 1 (9.1) No. (%)
  Best response: Progressive disease: 1 (9.1) No. (%)
  Best response: Stable disease: 8 (72.7) No. (%)
[4]; RET fusion-positive NSCLC (66 of 97)
  patients with shrinkage in tumor size: 68.0%
[4]; [5]
  DCR: 72.2%
  median PFS: 5.5 months
[4]; TP53 wild-type group (5 out of 15)
  patients with partial response: 33.3%
[4]; concurrent TP53 mutation (1 out of 11)
  patients with partial response: 9.1%
[4]; SD, dosing 176 days
  PFS: 5.52 months
[4]; confirmed PR, dosing 167 days
  PFS: 5.36 months
[4]; phase 1, advanced RET fusion NSCLC with at least one efficacy evaluation, as of April 28, 2021
  patients with partial response: 7 of 17
[4]; subgroup ECOG PS of 0
  ORR: 35.5%
[4]; subgroup age < 60
  ORR: 30.9%
[4]; subgroup with liver metastasis
  ORR: 37.5%

Source: article PMC11868595, “Safety, pharmacokinetics and efficacy of HA121-28 in patients with advanced solid tumors and RET fusion-positive non-small-cell lung cancer: a multicenter, open-label, single-arm phase 1/2 trial” (Signal Transduction and Targeted Therapy, 2025)
